Source: patent US8765765B2, “Metabolites of (thio) carbamoyl-cyclohexane derivatives” (Richter Gedeon Nyrt., priority 2007, dated 2014)
pKi: −log10 of the molar value.

Tests used:
[1] = molecular target: Alpha-1 receptor (rat brain cortical membrane preparation); experiment: Alpha-1 receptor binding, [3H]-prasosin; settings: rat brain cortical membranes, [3H]-prasosin 0.5 nM
Description: 3. Alpha-1 Receptor Binding
Alpha-1 receptor binding study was performed according to the method described by Greengrass and Bremmer (European Journal of Pharmacology 55:323-326, 1979) on rat brain cortical membrane preparation using [^3H]-prasosin (0.5 nM) as ligand. The non-specific binding was determined in the presence of 10 μM phentolamine.

[2] = molecular target: T1, D2 receptor (rat brain striatal membrane preparation) (Rattus norvegicus, UniProt P61169); experiment: D2 receptor binding, [3H]-spiperone; settings: rat brain striatal membranes, [3H]-spiperone 0.6 nM; read-out: rD2 Ki
T1 construct: on rat brain striatal membrane preparation; from tissue; host or cells: rat brain striatum membranes
T1 sequence (P61169 whole entry): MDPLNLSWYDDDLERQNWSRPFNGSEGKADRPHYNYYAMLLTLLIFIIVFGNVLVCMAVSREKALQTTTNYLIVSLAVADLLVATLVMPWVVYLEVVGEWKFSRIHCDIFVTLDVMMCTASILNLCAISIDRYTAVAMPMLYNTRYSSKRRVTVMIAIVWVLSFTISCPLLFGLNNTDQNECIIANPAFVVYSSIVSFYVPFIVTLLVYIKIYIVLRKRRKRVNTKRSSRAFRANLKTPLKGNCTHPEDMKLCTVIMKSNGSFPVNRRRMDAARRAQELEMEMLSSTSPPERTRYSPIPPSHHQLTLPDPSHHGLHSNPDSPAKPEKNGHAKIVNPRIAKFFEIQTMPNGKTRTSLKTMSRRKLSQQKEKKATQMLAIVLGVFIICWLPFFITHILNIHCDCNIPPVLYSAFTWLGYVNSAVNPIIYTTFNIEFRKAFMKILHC
Description: D2 receptor binding assay was carried out as described by Creese et al., European Journal of Pharmacology, 60, 55-66, 1979) on rat brain striatal membrane preparation using [^3H]-spiperone (0.6 nM) as ligand. The non-specific binding was determined in the presence of 1 μM (+)-butaclamol.

[3] = molecular target: T2, rat recombinant D3 receptors (expressed in Sf9 cells) (Rattus norvegicus, UniProt P19020); experiment: D3 receptor binding, [3H]-spiperone; settings: rat recombinant D3, [3H]-spiperone 0.85 nM; read-out: rD3 Ki
T2 construct: purchased Packard BioScience, BioSignal Packard Inc. 6110139; host or cells: Sf9 cells
T2 sequence (P19020 whole entry): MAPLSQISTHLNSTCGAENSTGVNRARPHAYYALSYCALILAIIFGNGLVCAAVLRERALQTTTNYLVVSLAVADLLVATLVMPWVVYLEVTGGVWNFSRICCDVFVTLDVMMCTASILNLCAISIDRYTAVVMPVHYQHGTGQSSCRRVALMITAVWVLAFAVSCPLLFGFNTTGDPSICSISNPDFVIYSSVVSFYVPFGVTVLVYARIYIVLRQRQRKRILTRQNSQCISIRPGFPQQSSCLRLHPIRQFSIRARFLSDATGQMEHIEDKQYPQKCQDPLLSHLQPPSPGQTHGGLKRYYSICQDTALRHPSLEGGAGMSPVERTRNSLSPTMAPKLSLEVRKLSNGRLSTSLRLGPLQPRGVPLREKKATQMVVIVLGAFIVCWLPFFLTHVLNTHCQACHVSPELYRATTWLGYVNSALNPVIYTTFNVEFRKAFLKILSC
Description: Binding assays were carried out on rat recombinant D3 receptors (expressed in Sf9 cells) according to the supplier instructions (Packard BioScience, BioSignal Packard Inc. Cat. No. 6110139, Technical Data Sheet) using [^3H]-spiperone (0.85 nM) as ligand and haloperidol (10 μM) for determination of non-specific binding.

[4] = system: adrenergic receptor sites; settings: background statement; cited from earlier work
[5] = molecular target: 5-HT2C (Homo sapiens, UniProt P28335); settings: background statement; cited from earlier work
5-HT2C, sequence (P28335 33-458, species assumed): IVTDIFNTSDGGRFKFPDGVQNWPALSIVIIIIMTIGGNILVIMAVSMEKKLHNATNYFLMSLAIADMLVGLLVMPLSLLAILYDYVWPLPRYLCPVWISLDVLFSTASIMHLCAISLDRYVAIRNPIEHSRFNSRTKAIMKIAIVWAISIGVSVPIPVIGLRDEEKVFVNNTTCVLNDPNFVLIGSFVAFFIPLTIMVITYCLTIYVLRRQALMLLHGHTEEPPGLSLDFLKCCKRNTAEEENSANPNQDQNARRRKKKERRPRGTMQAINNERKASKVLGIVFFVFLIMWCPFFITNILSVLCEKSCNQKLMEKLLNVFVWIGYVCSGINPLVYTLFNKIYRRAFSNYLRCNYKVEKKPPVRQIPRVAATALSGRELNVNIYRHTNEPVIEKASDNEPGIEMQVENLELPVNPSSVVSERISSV

[6] = molecular target: histamine H1 (Homo sapiens, UniProt P35367); settings: background statement; cited from earlier work
histamine H1, sequence (P35367 whole entry): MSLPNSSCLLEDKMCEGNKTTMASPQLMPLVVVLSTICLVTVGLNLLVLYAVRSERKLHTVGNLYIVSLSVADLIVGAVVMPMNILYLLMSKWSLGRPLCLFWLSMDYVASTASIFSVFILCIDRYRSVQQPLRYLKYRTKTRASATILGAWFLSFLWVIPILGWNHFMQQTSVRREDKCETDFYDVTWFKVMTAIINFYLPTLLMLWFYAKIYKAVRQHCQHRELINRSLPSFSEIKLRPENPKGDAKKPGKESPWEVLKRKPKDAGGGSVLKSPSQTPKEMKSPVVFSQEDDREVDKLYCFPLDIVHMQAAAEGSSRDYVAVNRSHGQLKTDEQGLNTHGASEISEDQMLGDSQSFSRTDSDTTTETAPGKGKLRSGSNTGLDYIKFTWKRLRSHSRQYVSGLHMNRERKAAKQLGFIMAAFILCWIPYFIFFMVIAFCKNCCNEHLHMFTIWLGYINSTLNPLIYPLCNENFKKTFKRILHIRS

[7] = system: dopamine D3/D2 receptor; settings: background statement; cited from earlier work

SMILES | pKi [1] | pKi [2] | pKi [3] | potency at adrenergic receptor sites [4] | potency at 5-HT2C receptor site [5] | potency at histamine H1 receptor site [6] | D3 receptor antagonism relative to D2 receptor antagonism [7]
CNC(=O)N[C@H]1CC[C@H](CCN2CCN(c3ccc(O)c(Cl)c3Cl)CC2)CC1 [Compound B, Trans-1-{4-[2-[4-(2,3-dichloro-4-hydroxy-phenyl)-piperazin-1-yl]-ethyl]-cyclohexyl}-3-methyl-urea] | < 6.00 | 8.60 | 9.62 |  |  |  | 
CN(C)C(=O)N[C@H]1CC[C@H](CC[N+]2([O-])CCN(c3cccc(Cl)c3Cl)CC2)CC1 [Compound D, Trans-1-{4-[2-[4-(2,3-dichlorophenyl)-1-oxo-piperazin-1-yl]-ethyl]-cyclohexyl}-3,3-dimethyl-urea] | < 6.00 | < 7.00 | < 8.00 |  |  |  | 
CN(C)C(=O)NC1CCC(CCN2CCN(c3cccc(Cl)c3Cl)CC2)CC1.Cl (stereo not drawn) [trans-4-{2-[4-(2,3-dichlorophenyl)-piperazin-1-yl]-ethyl}-N,N-dimethylcarbamoyl-cyclohexylamine hydrochloride] |  |  |  | low potency | low potency | low potency | about one order of magnitude greater

Continued, in another order:

pKi [1] | pKi [2] | pKi [3] | SMILES | potency at adrenergic receptor sites [4] | potency at 5-HT2C receptor site [5] | potency at histamine H1 receptor site [6] | D3 receptor antagonism relative to D2 receptor antagonism [7]
< 6.00 | 8.08 | 9.59 | NC(=O)N[C@H]1CC[C@H](CCN2CCN(c3ccc(O)c(Cl)c3Cl)CC2)CC1 [Compound A, Trans-1-{4-[2-[4-(2,3-dichloro-4-hydroxy-phenyl)-piperazin-1-yl]-ethyl]-cyclohexyl}-urea] |  |  |  | 
< 6.00 | 7.09 | 9.43 | CN(C)C(=O)N[C@H]1CC[C@H](CCN2CCN(c3ccc(O)c(Cl)c3Cl)CC2)CC1 [Compound C, Trans-1-{4-[2-[4-(2,3-dichloro-4-hydroxy-phenyl)-piperazin-1-yl]-ethyl]-cyclohexyl}-3,3-dimethyl-urea] |  |  |  | 
